In publication PMC10539800, “Small-molecule inhibitors of the PDZ domain of Dishevelled proteins interrupt Wnt signalling” (Magnetic resonance, 2021):
Entries after “also recorded” stand apart in the source; their conditions may differ.

How the values were obtained:
[1] = target: T1, Dvl-3 PDZ (Homo sapiens, UniProt Q92997); experiment: Binding constant by isothermal titration calorimetry (ITC); details: for T Δ S Dvl-3 PDZ / Δ G Dvl-3 PDZ / Δ H Dvl-3 PDZ: ITC; for Kd: by ITC, one-site binding model, 25 °C, read-out: K D Dvl-3 PDZ
T1 construct: spectra of Dvl-3 PDZ in the absence and presence of the compound; His-tag (cleaved yes); made in house
T1 sequence (Q92997 243-336): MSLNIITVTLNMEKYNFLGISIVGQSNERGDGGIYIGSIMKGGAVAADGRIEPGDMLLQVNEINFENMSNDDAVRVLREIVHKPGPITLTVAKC
Experimental: (§5) Isothermal titration calorimetry (ITC) experiments were performed using a VP-ITC system (MicroCal). Protein in 20 mM HEPES buffer and 50 mM NaCl (pH 7.4) was centrifuged and degassed before the experiment. A 200 µM ligand solution containing 2 % DMSO was injected 30 times in 10 µL aliquots at 120 s intervals with a stirring speed of 1000 rpm into a 1.4 mL sample cell containing the Dvl PDZ domain at a concentration of 20 µM at 25 ^∘ C. Control experiment was initially determined by titrating ligand into buffer at the same conditions. […] Thermodynamic properties and binding constants were determined by fitting the data with a non-linear least-squares routine using a single-site binding model with Origin (OriginLab) for ITC v.7.2 (MicroCal).

[2] = system: canonical Wnt signalling (β-catenin/TCF-dependent GFP) in HEK293 reporter cell line; experiment: TOP-GFP reporter assay (Wnt3a-induced); type: cell-based; details: Homo sapiens, 24 h, read-out: IC 50 Wnt3a-induced Wnt activation (TOP-GFP)
Excerpt: Taking advantage of a lentivirus that encodes GFP in a β -catenin/TCF-dependent fashion (TOP-GFP, SABiosciences), a stable HEK293 reporter cell line was established to evaluate the inhibitory effect of compounds 18, 20, and 21 on canonical Wnt signalling activity. TOP-GFP expression in this cell line was induced by the ligand Wnt3a, which directly activates the Frizzled–Dishevelled complex and protects β -catenin from degradation by the destruction complex (Fig. 2a).
The lentivirus particle (CCS-018L, SABiosciences) encoding GFP under the control of a basal promoter element (TATA box) joined to tandem repeats of a consensus TCF/LEF binding site was transfected into HEK293 cells. Stable cells were selected by puromycin (2 µgmL^-1 ) treatment. Wnt signalling activity indicated by GFP intensity was measured by flow cytometry after 24 h incubation with recombinant mouse Wnt3a (100 ng mL ^-1 ) or GSK3 inhibitor CHIR99021 (3 µM ) in the presence of Dvl inhibitors.

[3] = system: β-catenin protein level in HeLa cells; experiment: Western blotting of β-catenin levels; type: cell-based; details: HeLa cells treated with Wnt3a, 24 h; 150 µM
Excerpt: (§1) Increased β -catenin protein level is a hallmark of active Wnt signalling (Kishida et al., 1999). Once β -catenin is accumulated in the cytoplasm, it can translocate into the nucleus and activate the transcription of Wnt target genes by interacting with transcription factors of the TCF/LEF family (Fig. 2a) (Behrens et al., 1996). […] Increased mRNA levels of the Wnt target genes Axin2, LEF1, and Bmp2 (Riese et al., 1997; Jho et al., 2002; Lewis et al., 2010) were induced by Wnt3a treatment, as measured by qRT-PCR, and these increases were reduced by compounds 18, 20, and 21 (Fig. 2f).
To assess the β -catenin accumulation in HeLa cells, cells were treated with Wnt3a in the presence of Dvl inhibitors for 24 h and lysed in RIPA buffer (50 mM Tris, pH 8.0, 1 % NP-40, 0.5 % deoxycholate, 0.1 % SDS, 150 mM NaCl). Equal amounts of protein were loaded on a SDS-PAGE. Separated proteins were blotted onto PVDF membranes (polyvinylidene fluoride) for immunoblot analysis using anti- β -catenin antibody (610154, BD). HRP-conjugated anti-mouse antibody (715-035-150, Jackson ImmunoResearch Laboratories) was used for secondary detection with Western lightning chemiluminescence reagent plus (PerkinElmer) and Vilber Lourmat imaging system SL-3.

[4] = system: Wnt target genes (Axin2, LEF1, Bmp2) in HeLa cells; experiment: qRT-PCR of Wnt target genes; type: cell-based; details: HeLa cells treated with Wnt3a, 24 h; 150 µM
Excerpt: as §1
To measure the Wnt target accumulation at mRNA level, HeLa cells were treated with Wnt3a in the presence of Dvl inhibitors for 24 h. mRNA was extracted according to the standard TRIzol® protocol (Invitrogen) and reverse-transcribed using random primers (Invitrogen) and M-MLV reverse transcriptase (Promega). The qRT-PCR was performed in a iQ5 multi-colour real-time PCR detection system (Bio-Rad) using SYBR® Green (Thermo Scientific) and gene-specific primer pairs of Bmp2, Axin2, LEF1, and β -actin (endogenous control).

[5] = system: SW480 cells; experiment: Trans-well migration assay; type: cell-based; details: 24 h, 50–100 µM
Experimental: (§2) Canonical Wnt signalling contributes to cancer progression by inducing high motility and invasion of cancer cells while retaining the self-renewal property of cancer-initiating cells (Fritzmann et al., 2009; Sack et al., 2011; Vermeulen et al., 2010; Malanchi et al., 2008). […] Compounds 18 and 20 prevented increased cell migration and sphere formation.
Cell motility was assessed using 24-well trans-well assay (pore diameter: 8 µm , Corning). SW480WL cells were seeded in the upper chamber in serum-free DMEM with 0.1 % BSA; 20 % serum was supplemented to medium in the lower chamber. After incubation with Wnt3a in the presence of Dvl inhibitors for 24 h, non-migrant cells were scraped off using a cotton swab; the migrated cells on the filters were stained with DAPI, photographed, and counted.

[6] = system: SW480 cells; experiment: Colon sphere culture (sphere formation); type: cell-based; details: serum-free non-adherent culture, 10 d; 25–50 µM
Experimental: as §2
SW480WL cells were trypsinized into single cells, seeded on 24-well cell culture plates, pre-coated with 250 µL poly-HEMA (12 mg mL ^-1 in 95 % ethanol, Sigma) per well, and incubated with Wnt3a in the presence of Dvl inhibitors in the sphere culture medium (F12 : DMEM 1:1 , 1 × B-27 supplement, 20 ng mL ^-1 EGF, 20 ng mL ^-1 FGF, 0.5 % methylcellulose) for 10 d. Numbers of spheres were then counted under the microscope.

[7] = target: T2, Dvl-1 PDZ (Homo sapiens, UniProt O14640, C338S/V250I); details: for T Δ S Dvl-1 PDZ / Δ G Dvl-1 PDZ / Δ H Dvl-1 PDZ: ITC
T2 sequence (O14640 245-338 V250I/C338S): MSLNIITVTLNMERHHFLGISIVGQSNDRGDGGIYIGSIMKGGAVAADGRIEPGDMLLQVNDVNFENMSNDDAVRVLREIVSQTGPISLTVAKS
Experimental: as §5

[8] = system: Wnt signalling (TOP-luciferase) in HeLa cells; experiment: TOPflash luciferase reporter assay; type: cell-based
Experimental: (§3) To further evaluate the specificity of our Dvl inhibitors, the conventional TOPflash (Molenaar et al., 1996) and other luciferase reporter assays were performed.
(§4) Plasmids encoding a firefly luciferase reporter gene under the control of different responsive elements were transfected into HeLa cells with a pRL-SV40 normalization reporter plasmid using the Lipofectamine 2000 (Invitrogen). After desired treatment, cells were harvested in the passive lysis buffer (Promega), and 15 µL cell lysate was transferred to 96-well LumiNunc plates (Thermo Scientific). Firefly luciferase and Renilla luciferase were detected with the D-luciferin buffer (75 mM HEPES, 4 mM MgSO 4 , 20 mM DTT, 100 µM EDTA, 0.5 mM ATP, 135 µM Coenzyme A, and 100 µM D-Luciferin sodium salt; pH 8.0) and the coelenterazine buffer (15 mM Na4PPi, 7.5 mM NaAc, 10 mM CDTA, 400 mM Na 2 SO 4 , 25 µM APMBT, and 1.1 µM coelenterazine; pH 5.0), respectively, using the CentroXS LB960 lumiometer (Berthold Technologies).

[9] = system: NF-κB signalling; experiment: NF-κB-luciferase reporter assay; type: cell-based; details: stimulated by recombinant TNFα
Experimental: as §3, §4

[10] = system: Notch signalling; experiment: Notch-luciferase reporter assay; type: cell-based; details: stimulated by overexpression of Notch intracellular domain
Experimental: as §3, §4

[11] = system: Oct4; experiment: Oct-luciferase reporter assay; type: cell-based; details: stimulated by overexpression of Oct4
Experimental: as §3, §4

[12] = target: Dvl PDZ; details: internal Frizzled sequence; ref Wong et al., 2003; Chandanamali et al., 2009; read-out: K D Dvl PDZ domains; cited from earlier work

| T Δ S Dvl-3 PDZ [1] [kcal mol ^-1] | Δ G Dvl-3 PDZ [1] [kcal mol ^-1] | Δ H Dvl-3 PDZ [1] [kcal mol ^-1] | n (stoichiometry) Dvl-3 PDZ ([1]; ITC one-site fit) | Kd [1] [µM] | T Δ S Dvl-1 PDZ [7] [kcal mol ^-1] | Δ G Dvl-1 PDZ [7] [kcal mol ^-1] | Δ H Dvl-1 PDZ [7] [kcal mol ^-1] | n (stoichiometry) Dvl-1 PDZ ([7]; ITC one-site fit) | Molecule | IC50 [2] [µM] | accumulation of β-catenin [3] | transcription of Wnt target genes (Axin2, LEF1, Bmp2) [4] | migration of SW480 cells enhanced by Wnt3a [5] | sphere formation of SW480 cells enhanced by Wnt3a [6] | effect on Chir99021-induced Wnt activation (TOPflash) [8] | effect on TOP-luciferase signals stimulated by Wnt3a [8] | effect on NF-κB-luciferase [9] | effect on Notch-luciferase [10] | effect on Oct-luciferase [11] | Kd [12] [µM] |
| --- | --- | --- | --- | --- | --- | --- | --- | --- | --- | --- | --- | --- | --- | --- | --- | --- | --- | --- | --- | --- |
| -1.2 | -6.7 | -8.0 | 1.14 | 9.4 ± 0.6 | -4.7 | -7.5 | -12.2 | 1.12 | Cc1ccc(NS(=O)(=O)c2ccc(CNC(=O)c3n[nH]c4ccccc34)c(Cl)c2)c(C(=O)O)c1 [Compound 18] | 50 to 75 | inhibited accumulation | reduced the transcription | reduced the migration; also recorded: prevented | reduced sphere formation; also recorded: prevented | – | – | – | – | – | – |
| -3.6 | -6.8 | -10.4 | – | 9.8 ± 0.3 | -2.2 | -7.2 | -9.4 | – | Cc1ccc(NS(=O)(=O)c2ccc(CNC(=O)c3cc(Br)c[nH]3)c(Cl)c2)c(C(=O)O)c1 [Compound 20] | 50 to 75 | inhibited accumulation | reduced the transcription | reduced the migration; also recorded: prevented | reduced sphere formation; also recorded: prevented | no or a mild effect | specifically inhibited | no or a mild effect; also recorded: no significant inhibitory effects | no or a mild effect; also recorded: no significant inhibitory effects | no or a mild effect; also recorded: no significant inhibitory effects | – |
| 0.7 | -6.8 | -5.9 | – | 12.5 ± 0.5 | -1.5 | -7.0 | -8.5 | – | Cc1ccc(NS(=O)(=O)c2ccc(CNC(=O)c3cc(Cl)c[nH]3)c(Cl)c2)c(C(=O)O)c1 [Compound 21] | 50 to 75 | inhibited accumulation | reduced the transcription | – | – | – | – | – | – | – | – |
| – | – | – | – | – | – | – | – | – | Frizzled peptide 525(GKTLQSWRRFYH)536: Frizzled peptide with internal sequence KTXXXW recognized by Dvl PDZ domains | – | – | – | – | – | – | – | – | – | – | ~10 |
